From ChEMBL document CHEMBL1140492, “Synthesis and inhibitory activity of 4-alkynyl and 4-alkenylquinazolines: identification of new scaffolds for potent EGFR tyrosine kinase inhibitors” (Bioorg Med Chem Lett, 2007)

Biological target: Epidermal growth factor receptor (Homo sapiens, UniProt P00533)
Experiment: Inhibition of partially purified EGFR tyrosine kinase from human A431 cells

Epidermal growth factor receptor, sequence (P00533 whole entry): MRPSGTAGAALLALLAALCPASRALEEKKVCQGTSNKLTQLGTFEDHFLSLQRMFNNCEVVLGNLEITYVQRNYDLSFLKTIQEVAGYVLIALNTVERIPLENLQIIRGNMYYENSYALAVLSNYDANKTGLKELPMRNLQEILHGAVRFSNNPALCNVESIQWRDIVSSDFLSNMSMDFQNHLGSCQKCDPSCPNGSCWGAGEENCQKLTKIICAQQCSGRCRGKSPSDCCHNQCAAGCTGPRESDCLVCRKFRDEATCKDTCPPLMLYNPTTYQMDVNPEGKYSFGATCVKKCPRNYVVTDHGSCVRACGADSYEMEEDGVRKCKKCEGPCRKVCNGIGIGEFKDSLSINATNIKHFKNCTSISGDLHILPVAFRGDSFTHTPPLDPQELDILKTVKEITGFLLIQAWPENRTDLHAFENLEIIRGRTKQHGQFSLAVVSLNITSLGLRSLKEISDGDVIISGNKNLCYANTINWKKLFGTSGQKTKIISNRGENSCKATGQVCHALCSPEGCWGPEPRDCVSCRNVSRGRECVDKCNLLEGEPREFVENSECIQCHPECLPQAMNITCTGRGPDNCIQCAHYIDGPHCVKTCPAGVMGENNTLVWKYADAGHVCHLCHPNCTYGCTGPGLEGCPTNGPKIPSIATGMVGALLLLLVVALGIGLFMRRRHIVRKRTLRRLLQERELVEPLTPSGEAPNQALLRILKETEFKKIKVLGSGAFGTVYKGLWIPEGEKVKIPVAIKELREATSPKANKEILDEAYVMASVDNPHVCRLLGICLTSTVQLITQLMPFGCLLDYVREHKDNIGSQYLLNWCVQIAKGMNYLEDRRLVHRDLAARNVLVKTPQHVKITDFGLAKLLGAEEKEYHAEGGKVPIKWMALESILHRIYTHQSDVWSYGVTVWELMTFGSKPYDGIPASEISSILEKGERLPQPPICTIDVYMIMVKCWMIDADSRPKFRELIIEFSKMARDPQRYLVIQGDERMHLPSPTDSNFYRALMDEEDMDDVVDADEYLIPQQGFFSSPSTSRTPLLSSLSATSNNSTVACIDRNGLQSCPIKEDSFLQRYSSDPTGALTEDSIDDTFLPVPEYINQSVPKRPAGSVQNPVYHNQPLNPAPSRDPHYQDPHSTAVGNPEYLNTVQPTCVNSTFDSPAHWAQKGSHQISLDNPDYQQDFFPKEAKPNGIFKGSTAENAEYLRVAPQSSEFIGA

Q: With CCN(CC)[C@@](C)(C#Cc1ncnc2cc(OC)c(OC)cc12)Cc1ccncc1 as the compound, how does the IC50 read?
A: 200 nM

Q: For CCOc1cc2ncnc(C#Cc3c[nH]nc3-c3ccc(F)cc3)c2cc1OCC, which IC50 is on record?
A: 1.8 nM

Q: CCN(CC)[C@@](C)(C#Cc1ncnc2cc(OC)c(OC)cc12)CCc1ccccc1 was tested. Which IC50 did it give?
A: 1200 nM

Q: How did the IC50 turn out when CCOc1cc2ncnc(C#CC(C)(Cc3ccccc3)N3CCC(C(=O)O)CC3)c2cc1OCC (racemic) was run?
A: 11.7 nM

Q: Which IC50 does the source give for CCN(CC)[C@@](C)(C#Cc1ncnc2cc(OC)c(OC)cc12)CC1CCCCC1 here?
A: 1100 nM

Q: Which IC50 does the source give for COc1cc2ncnc(C#CC(C)(C)N(C)c3ccccc3)c2cc1OC here?
A: 80 nM

Q: Which IC50 does the source give for CCOc1cc2ncnc(C#Cc3[nH]ccc3-c3ccccc3)c2cc1OCC here?
A: 10 nM

Q: For CCN(CC)[C@@](C)(C#Cc1ncnc2cc(OC)c(OC)cc12)Cc1ccccc1, which IC50 is on record?
A: 3 nM

Q: For COc1cc2ncnc(C#C[C@@](C)(Cc3ccccc3)N3CCC(C(=O)O)CC3)c2cc1OC, which IC50 is on record?
A: 33 nM

Q: For CCN(CC)[C@@](C)(C#Cc1ncnc2cc(OC)c(OC)cc12)c1ccccc1, which IC50 is on record?
A: 7300 nM

Q: How did the IC50 turn out when COc1cc2ncnc(/C=C/CCc3ccccc3)c2cc1OC was run?
A: 4 nM

Q: Which IC50 does the source give for CCOc1cc2ncnc(C#C[C@@](C)(Cc3ccccc3)N3CCC(C(=O)O)CC3)c2cc1OCC here?
A: 4.2 nM

Q: Which IC50 does the source give for COc1cc2ncnc(C#CCCc3ccccc3)c2cc1OC here?
A: 14 nM

Q: For CCOc1cc2ncnc(/C=C/c3ccccc3)c2cc1OCC, which IC50 is on record?
A: 15 nM

Q: CCOc1cc2ncnc(/C=C/CCCc3ccccc3)c2cc1OCC was tested. Which IC50 did it give?
A: 140 nM

Q: For COc1cc2ncnc(C#CC(C)(C)Cc3ccccc3)c2cc1OC, which IC50 is on record?
A: 13 nM

Q: With CCOc1cc2ncnc(/C=C/CCc3ccccc3)c2cc1OCC as the compound, how does the IC50 read?
A: 5 nM

Q: How did the IC50 turn out when CCN(CC)[C@@](C)(CCc1ncnc2cc(OC)c(OC)cc12)Cc1ccccc1 was run?
A: 130 nM

Q: For COc1cc2ncnc(C#Cc3ccccc3-c3ccccc3)c2cc1OC, which IC50 is on record?
A: 26 nM

Q: Which IC50 does the source give for COc1cc2ncnc(C#Cc3ccccc3)c2cc1OC here?
A: 5600 nM

Q: Which IC50 does the source give for COc1cc2ncnc(C#CCOc3ccccc3)c2cc1OC here?
A: 15 nM

Q: With CCOc1cc2ncnc(C#Cc3nccn3-c3ccccc3)c2cc1OCC as the compound, how does the IC50 read?
A: 12 nM

Q: How did the IC50 turn out when CCOc1cc2ncnc(C#C[C@](C)(Cc3ccccc3)N3CCC(C(=O)O)CC3)c2cc1OCC was run?
A: 662 nM
